Assay results published in ChEMBL document CHEMBL2311264, “Synthesis and anticancer activity of heteroaromatic linked 4β-amido podophyllotoxins as apoptotic inducing agents” (Bioorg Med Chem Lett, 2013).

How the values were obtained:
Format in all cases: functional, cell-based
HeLa = assay: Cytotoxicity against human HeLa cells […] by MTT assay
ACHN = assay: Cytotoxicity against human ACHN cells […] by MTT assay
B16 = assay: Cytotoxicity against mouse B16 cells […] by MTT assay
HT-29 = assay: Cytotoxicity against human HT-29 cells after 72 hrs by MTT assay; details: HT-29, 72 h
A549 = assay: Cytotoxicity against human A549 cells […] by MTT assay

SMILES: COc1ccc(-c2cc(C(=O)N[C@@H]3c4cc5c(cc4[C@@H](c4cc(OC)c(OC)c(OC)c4)[C@H]4C(=O)OC[C@@H]43)OCO5)no2)cc1
- IC50 (HeLa): 11.2 µM
- IC50 (ACHN): 30.3 µM
- IC50 (B16): 22.5 µM
- IC50 (HT-29): 32.1 µM
- IC50 (A549): 38.1 µM

SMILES: COc1cc([C@@H]2c3cc4c(cc3[C@@H](NC(=O)c3cc(-c5ccc(F)c(F)c5)[nH]n3)[C@H]3COC(=O)[C@H]23)OCO4)cc(OC)c1OC
- IC50 (HeLa): 14.9 µM
- IC50 (ACHN): 32.5 µM
- IC50 (B16): 25.6 µM
- IC50 (HT-29): 10.8 µM
- IC50 (A549): 15.8 µM

SMILES: COc1cc([C@@H]2c3cc4c(cc3[C@@H](NC(=O)c3cc(-c5ccc(F)c(F)c5)on3)[C@H]3COC(=O)[C@H]23)OCO4)cc(OC)c1OC
- IC50 (HeLa): 21.2 µM
- IC50 (ACHN): 16.4 µM
- IC50 (B16): 27.5 µM
- IC50 (HT-29): 14.1 µM
- IC50 (A549): 12.7 µM

SMILES: COc1cc([C@@H]2c3cc4c(cc3[C@@H](NC(=O)c3cc(-c5ccc([N+](=O)[O-])cc5)on3)[C@H]3COC(=O)[C@H]23)OCO4)cc(OC)c1OC
- IC50 (HeLa): 7.5 µM
- IC50 (ACHN): 26.4 µM
- IC50 (B16): 16.8 µM
- IC50 (HT-29): 22.6 µM
- IC50 (A549): 17.9 µM

SMILES: COc1cc(-c2cc(C(=O)N[C@@H]3c4cc5c(cc4[C@@H](c4cc(OC)c(OC)c(OC)c4)[C@H]4C(=O)OC[C@@H]43)OCO5)n[nH]2)cc(OC)c1OC
- IC50 (HeLa): 11.5 µM
- IC50 (ACHN): 27.1 µM
- IC50 (B16): 18.3 µM
- IC50 (HT-29): 16.8 µM
- IC50 (A549): 15.2 µM

SMILES: COc1ccc(-c2cc(C(=O)N[C@@H]3c4cc5c(cc4[C@@H](c4cc(OC)c(OC)c(OC)c4)[C@H]4C(=O)OC[C@@H]43)OCO5)no2)cc1OC
- IC50 (HeLa): 13.3 µM
- IC50 (ACHN): 23.1 µM
- IC50 (B16): 12.7 µM
- IC50 (HT-29): 38.4 µM
- IC50 (A549): 23.1 µM

SMILES: COc1cc([C@@H]2c3cc4c(cc3[C@@H](NC(=O)c3cc(-c5ccc(Cl)c(Cl)c5)on3)[C@H]3COC(=O)[C@H]23)OCO4)cc(OC)c1OC
- IC50 (HeLa): 12.6 µM
- IC50 (ACHN): 16.8 µM
- IC50 (B16): 22.7 µM
- IC50 (HT-29): 11.2 µM
- IC50 (A549): 31.1 µM

SMILES: COc1ccc(-c2cc(C(=O)N[C@@H]3c4cc5c(cc4[C@@H](c4cc(OC)c(OC)c(OC)c4)[C@H]4C(=O)OC[C@@H]43)OCO5)n[nH]2)cc1
- IC50 (HeLa): 9.4 µM
- IC50 (ACHN): 11.6 µM
- IC50 (B16): 9.5 µM
- IC50 (HT-29): 8.4 µM
- IC50 (A549): 5.3 µM

SMILES: COc1ccc(-c2cc(C(=O)N[C@@H]3c4cc5c(cc4[C@@H](c4cc(OC)c(OC)c(OC)c4)[C@H]4C(=O)OC[C@@H]43)OCO5)n[nH]2)cc1OC
- IC50 (HeLa): 25.1 µM
- IC50 (ACHN): 31.6 µM
- IC50 (B16): 45.3 µM
- IC50 (HT-29): 36.3 µM
- IC50 (A549): 39.5 µM

SMILES: COc1cc(-c2cc(C(=O)N[C@@H]3c4cc5c(cc4[C@@H](c4cc(OC)c(OC)c(OC)c4)[C@H]4C(=O)OC[C@@H]43)OCO5)nc3cc(-c4ccccc4)nn23)cc(OC)c1OC
- IC50 (HeLa): 13.7 µM
- IC50 (ACHN): 13.8 µM
- IC50 (B16): 12.7 µM
- IC50 (HT-29): 9.2 µM
- IC50 (A549): 9.5 µM

SMILES: COc1cc([C@@H]2c3cc4c(cc3[C@@H](NC(=O)c3cc(-c5ccccc5)[nH]n3)[C@H]3COC(=O)[C@H]23)OCO4)cc(OC)c1OC
- IC50 (HeLa): 7.5 µM
- IC50 (ACHN): 30.2 µM
- IC50 (B16): 16.3 µM
- IC50 (HT-29): 26.5 µM
- IC50 (A549): 28.9 µM

SMILES: COc1cc([C@@H]2c3cc4c(cc3[C@@H](NC(=O)c3cc(-c5ccccc5)on3)[C@H]3COC(=O)[C@H]23)OCO4)cc(OC)c1OC
- IC50 (HeLa): 5.9 µM
- IC50 (ACHN): 17.5 µM
- IC50 (B16): 16.3 µM
- IC50 (HT-29): 19.5 µM
- IC50 (A549): 13.6 µM
